Experimental data published in US20260042746A1, “2(1H)-PYRIDINIMINE DERATIVE” (SUMITOMO PHARMA CO., LTD., priority 2022, published 2026).

Tested on: α-synuclein aggregate
Experiment: Test 2: suppressing the accumulation of α-synuclein aggregate in neurospheroid from PLA2G6 mutant human iPS cells
Assay type: cell-based
Conditions: compound added day 4, measured day 9, DMSO = 100%; for activity at 0.1 µM: 100 nM, read-out: Amount of aggregate (%) 100 nM; for activity at 1 µM: 1000 nM, read-out: Amount of aggregate (%) 1000 nM
Procedure: Test 2: Evaluation of Suppressing the Accumulation of α-Synuclein Aggregate with Neurospheroid Prepared from Human iPS Cells with a Mutation in PLA2G6 Gene
(1) Induction of Differentiation from Human iPS Cell to Neural Cell
Neural stem cells were induced from PLA2G6 gene mutant iPS cells with PSC Neuronal Induction Medium (Thermo Fisher Scientific Inc., cat #A1647801). Neurospheroid was prepared from the induced neural stem cells by three-dimensional culture system, and preserved with BrainPhys Neuronal Medium (STEMCELL Technologies, cat #ST-05793) comprising NeuroCult SM1 Neuronal Supplement, N2 Supplement-A, 20 ng/mL BDNF, 20 ng/mL GDNF, 1 mM dibutyryl cAMP, and 200 nM ascorbic acid. Half of the culture medium was replaced on day 2 and day 4 after the induction of differentiation.
The test compound was diluted with the culture medium so as to be twice the final concentration, and an equal volume of the twice-concentrated solution was added to each well when half of the culture medium was replaced on day 4 after induction of differentiation.
(2) Evaluation of the Amount of α-Synuclein Aggregate
From the neurospheroid 9 days after the induction of differentiation, proteins were extracted with a TBS solution containing 1% TritionX-100, and the extracted proteins were subjected to a protein analysis with Simple Western system (Protein Simple, Inc., cat #SM-W008) using an α-synuclein antibody (Thermo Fisher Scientific Inc., cat #AHB0261) to measure the amount of the α-synuclein aggregate.
Assuming that the amount of the aggregate in the neurospheroid added with a DMSO solution is 100%, the amount of the aggregate in the neurospheroid added with each test compound was evaluated.

## CCn1ccc(OC)c/c1=N\C(=O)C1(CC)COC1 [Example 11]
  activity at 0.1 µM: 65%
  activity at 1 µM: 7%

## CN1CC(C)(C(=O)/N=c2\ccccn2C)C1 [Example 49, 1,3-Dimethyl-N-[(2E)-1-methylpyridin-2(1H)-ylidene]azetidine-3-carboxamide]
  activity at 0.1 µM: 78%
  activity at 1 µM: 74%

## Cn1cccc/c1=N\C(=O)N1CCOC(C)(C)C1 [Example 75, 2,2-Dimethyl-N-[(2E)-1-methylpyridin-2(1H)-ylidene]morpholine-4-carboxamide]
  activity at 0.1 µM: 49%
  activity at 1 µM: 63%

## Cn1cccc/c1=N\C(=O)C1CCNCC1 [Example 68]
  activity at 0.1 µM: 80%
  activity at 1 µM: 31%

## Cn1cccc/c1=N\C(=O)C1CCNC1 (stereo not drawn) [Example 67]
  activity at 0.1 µM: 62%
  activity at 1 µM: 72%

## CCn1ccc(F)c/c1=N\C(=O)C1(CC)COC1 [Example 19]
  activity at 0.1 µM: 112%
  activity at 1 µM: 19%

## CCC1(C(=O)/N=c2\cc(Cl)ccn2C)COC1 [Example 21]
  activity at 0.1 µM: 37%
  activity at 1 µM: 7%

## Cc1c/c(=N\C(=O)C2(C)COC2)n(C)cc1C [Example 34]
  activity at 0.1 µM: 18%
  activity at 1 µM: 85%

## Cn1cccc/c1=N\C(=O)C1CNC1 [Example 66]
  activity at 0.1 µM: 61%
  activity at 1 µM: 66%

## Cn1cccc/c1=N\C(=O)N1CCOCC1(C)C [Example 74, 3,3-Dimethyl-N-[(2E)-1-methylpyridin-2(1H)-ylidene]morpholine-4-carboxamide]
  activity at 0.1 µM: 30%
  activity at 1 µM: 64%

## Cn1cc(F)cc/c1=N\C(=O)C1(C)CNC1 [Example 46]
  activity at 0.1 µM: 85%
  activity at 1 µM: 49%

## Cc1ccn(C)/c(=N/C(=O)C2(C)COC2)c1 [Example 4]
  activity at 0.1 µM: 10%
  activity at 1 µM: 120%

## CN1CCC(C(=O)/N=c2\ccccn2C)CC1 [Example 65]
  activity at 0.1 µM: 86%
  activity at 1 µM: 67%

## CCC1(C(=O)/N=c2\ccc(OC)cn2C)COC1 [Example 29]
  activity at 0.1 µM: 89%
  activity at 1 µM: 33%

## Cn1ccc(C(F)(F)F)c/c1=N\C(=O)C1(C)COC1 [Example 6]
  activity at 0.1 µM: 38%
  activity at 1 µM: 26%

## Cn1cc(C(F)(F)F)cc/c1=N\C(=O)C1(C)CNC1 [Example 48]
  activity at 0.1 µM: 63%
  activity at 1 µM: 68%

## CCn1ccc(OC)c/c1=N\C(=O)C1(C)COC1 [Example 10]
  activity at 0.1 µM: 25%
  activity at 1 µM: 8%

## CCC1(C(=O)/N=c2\cc(C)c(C)cn2C)COC1 [Example 35]
  activity at 0.1 µM: 95%
  activity at 1 µM: 97%

## CN1CC(C)(C(=O)/N=c2\cc(OC(F)(F)F)ccn2C)C1 [Example 54]
  activity at 0.1 µM: 18%
  activity at 1 µM: 13%

## CCC1(C(=O)/N=c2\cc(F)ccn2C)COC1 [Example 17]
  activity at 0.1 µM: 77%
  activity at 1 µM: 7%

## COc1cc/c(=N\C(=O)C2(C)COC2)n(C)c1 [Example 28]
  activity at 0.1 µM: 47%
  activity at 1 µM: 98%

## CCn1ccc(Cl)c/c1=N\C(=O)C1(C)COC1 [Example 22]
  activity at 0.1 µM: 28%
  activity at 1 µM: 48%

## CCOc1ccn(C)/c(=N/C(=O)C2(C)COC2)c1 [Example 12]
  activity at 0.1 µM: 19%
  activity at 1 µM: 10%

## Cn1cccc/c1=N\C(=O)C1CCCO1 (stereo not drawn) [Example 62]
  activity at 0.1 µM: 76%
  activity at 1 µM: 79%

## Cc1c/c(=N\C(=O)C2(C)CN(C)C2)n(C)cc1F [Example 58]
  activity at 0.1 µM: 36%
  activity at 1 µM: 17%

## Cn1cc(Cl)cc/c1=N\C(=O)C1(C)COC1 [Example 32]
  activity at 0.1 µM: 33%
  activity at 1 µM: 31%

## Cn1cccc/c1=N\C(=O)C1(C)CN(CC(F)(F)F)C1 [Example 73, 3-Methyl-N-[(2E)-1-methylpyridin-2(1H)-ylidene]-1-(2,2,2-trifluoroethyl)azetidine-3-carboxamide]
  activity at 0.1 µM: 79%
  activity at 1 µM: 76%

## Cc1c/c(=N\C(=O)C2(C)COC2)n(C)cc1F [Example 36]
  activity at 0.1 µM: 13%
  activity at 1 µM: 16%

## Cc1c/c(=N\C(=O)C2(C)COC2)n(C)cc1Br [Example 38]
  activity at 0.1 µM: 21%
  activity at 1 µM: 33%

## CCC1(C(=O)/N=c2\cc(C)ccn2C)COC1 [Example 5]
  activity at 0.1 µM: 113%
  activity at 1 µM: 91%

## CCn1ccc(F)c/c1=N\C(=O)C1(C)COC1 [Example 18]
  activity at 0.1 µM: 30%
  activity at 1 µM: 26%

## CN1CC(C(=O)/N=c2\ccccn2C)C1 [Example 69]
  activity at 0.1 µM: 89%
  activity at 1 µM: 41%

## CCC1(C(=O)/N=c2\cc(C)c(Br)cn2C)COC1 [Example 39]
  activity at 0.1 µM: 15%
  activity at 1 µM: 94%

## Cn1cc(F)cc/c1=N\C(=O)C1(C)COC1 [Example 30]
  activity at 0.1 µM: 50%
  activity at 1 µM: 59%

## CCC1(C(=O)/N=c2\ccc(C(F)(F)F)cn2C)COC1 [Example 27]
  activity at 0.1 µM: 19%
  activity at 1 µM: 28%

## CC(C)N1CC(C)(C(=O)/N=c2\ccccn2C)C1 [Example 71, 3-Methyl-N-[(2E)-1-methylpyridin-2(1H)-ylidene]-1-(propan-2-yl)azetidine-3-carboxamide]
  activity at 0.1 µM: 64%
  activity at 1 µM: 73%

## Cn1cccc/c1=N\C(=O)C1(C)CN(C2CC2)C1 [Example 72, 1-Cyclopropyl-3-methyl-N-[(2E)-1-methylpyridin-2(1H)-ylidene]azetidine-3-carboxamide]
  activity at 0.1 µM: 64%
  activity at 1 µM: 75%

## CN1CC(C)(C(=O)/N=c2\ccc(F)cn2C)C1 [Example 56]
  activity at 0.1 µM: 30%
  activity at 1 µM: 68%

## Cc1cc/c(=N\C(=O)C2(C)CNC2)n(C)c1 [Example 47]
  activity at 0.1 µM: 25%
  activity at 1 µM: 40%

## CN1CCC(C(=O)/N=c2\ccccn2C)C1 (stereo not drawn) [Example 70]
  activity at 0.1 µM: 77%
  activity at 1 µM: 31%

## COc1ccn(C)/c(=N/C(=O)C2(C)CNC2)c1 [Example 44]
  activity at 0.1 µM: 23%
  activity at 1 µM: 10%

## CCOc1ccn(C)/c(=N/C(=O)C2(C)CN(C)C2)c1 [Example 53]
  activity at 0.1 µM: 16%
  activity at 1 µM: 92%

## Cn1cc(C(F)(F)F)cc/c1=N\C(=O)C1(C)COC1 [Example 26]
  activity at 0.1 µM: 23%
  activity at 1 µM: 38%

## CCn1ccc(Cl)c/c1=N\C(=O)C1(CC)COC1 [Example 23]
  activity at 0.1 µM: 56%
  activity at 1 µM: 11%

## Cc1cc/c(=N\C(=O)C2(C)COC2)n(C)c1 [Example 24]
  activity at 0.1 µM: 121%
  activity at 1 µM: 58%

## CCC1(C(=O)/N=c2\ccc(Cl)cn2C)COC1 [Example 33]
  activity at 0.1 µM: 33%
  activity at 1 µM: 50%

## Cn1cccc/c1=N\C(=O)C1CCN(CC(F)(F)F)CC1 [Example 42]
  activity at 0.1 µM: 82%
  activity at 1 µM: 96%

## CCC1(C(=O)/N=c2\cc(OC(F)(F)F)ccn2C)COC1 [Example 15]
  activity at 0.1 µM: 2%
  activity at 1 µM: 120%

## CCC1(C(=O)/N=c2\ccc(C)cn2C)COC1 [Example 25]
  activity at 0.1 µM: 73%
  activity at 1 µM: 21%

## Cc1c/c(=N\C(=O)C2(C)CN(C)C2)n(C)cc1Br [Example 59]
  activity at 0.1 µM: 6%
  activity at 1 µM: 4%

## CCn1ccc(OC)c/c1=N\C(=O)C1(C)CN(C)C1 [Example 52]
  activity at 0.1 µM: 68%
  activity at 1 µM: 60%

## Cn1cccc/c1=N\C(=O)C1CCOC(C)(C)C1 (stereo not drawn) [Example 64]
  activity at 0.1 µM: 69%
  activity at 1 µM: 72%

## Cc1c/c(=N\C(=O)C2(C)CN(C)C2)n(C)cc1C [Example 57]
  activity at 0.1 µM: 13%
  activity at 1 µM: 31%

## CCC1(C(=O)/N=c2\cc(C)c(F)cn2C)COC1 [Example 37]
  activity at 0.1 µM: 29%
  activity at 1 µM: 53%

## CCn1ccc(OC)c/c1=N\C(=O)C1(C)CNC1 [Example 45]
  activity at 0.1 µM: 25%
  activity at 1 µM: 35%

## COc1ccn(C)/c(=N/C(=O)C2(C)COC2)c1 [Example 8]
  activity at 0.1 µM: 58%
  activity at 1 µM: 61%

## Cn1cccc/c1=N\C(=O)N1CCOCC1 [Example 61, N-[(2E)-1-methylpyridin-2(1H)-ylidene]morpholine-4-carboxamide]
  activity at 0.1 µM: 73%
  activity at 1 µM: 53%

## Cn1ccc(F)c/c1=N\C(=O)C1(C)COC1 [Example 16]
  activity at 0.1 µM: 73%
  activity at 1 µM: 62%

## CCC1(C(=O)/N=c2\cc(OC)c(Cl)cn2C)COC1 [Example 41]
  activity at 0.1 µM: 18%
  activity at 1 µM: 45%

## Cn1ccc(Cl)c/c1=N\C(=O)C1(C)COC1 [Example 20]
  activity at 0.1 µM: 16%
  activity at 1 µM: 49%

## Cn1ccc(OC(F)(F)F)c/c1=N\C(=O)C1(C)COC1 [Example 14]
  activity at 0.1 µM: 21%
  activity at 1 µM: 7%

## Cc1cc/c(=N\C(=O)C2(C)CN(C)C2)n(C)c1 [Example 55]
  activity at 0.1 µM: 92%
  activity at 1 µM: 74%

## Cn1cccc/c1=N\C(=O)C1(C)CNC1 [Example 43, 3-Methyl-N-[(2E)-1-methylpyridin-2(1H)-ylidene]azetidine-3-carboxamide]
  activity at 0.1 µM: 49%
  activity at 1 µM: 57%
